Literature values in US20240286998A1, “F[…], ANALOGUES THEREOF, AND METHODS USING SAME” (Saint Joseph's University, priority 2021, published 2024).

Tested on: C57BL/6J mice
Conditions: reported values of known 5HT2A agonists run under comparable conditions; dash = ED50 could not be estimated; cited from earlier work

SMILES: CN(C)CCc1c[nH]c2cccc(OP(=O)(O)O)c12 [Psilocybin]
- HTR ED50 μmol/kg (95% CI): 1.40 µmol/kg
- HTR ED50 mg/kg (95% CI): 0.38 mg/kg
